Assay results reported in patent publication EP0675126A1, “AMYLOID BETA-PROTEIN AGGLUTINATION AND/OR DEPOSITION INHIBITOR” (TEIJIN LIMITED, priority 1993, dated 1995).

Assays:
[1] = oral administration to rats; cited from earlier work
[2] = administered orally to patients at about 300-600 mg/day; cited from earlier work
[3] = target: T1, β1-35 peptide (Homo sapiens, UniProt P05067); assay: β-amyloid protein aggregation inhibition by SDS-PAGE (Example 1); assay type: biochemical; conditions: drug agent 100 µg/ml; β1-35 peptide 2 mg/ml; room temperature; control and methanol solutions aggregated by the 7th day
T1 construct: made in house; host or cells: chemical solid-phase synthesis (Fmoc)
T1 sequence (P05067 672-706): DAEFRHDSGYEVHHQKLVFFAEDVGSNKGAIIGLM
From the text: When synthesized β-amyloid protein is subjected to SDS-PAGE, a 3-4 kDa band due to the peptide monomer is observed. However, when the protein begins to aggregate, this monomer band becomes thinner and a smear is observed at the high molecular end (Tomiyama, et al. 1994, J. Biol. Chem. 269, 10205-10208). The inhibitory activity of a drug agent against β-amyloid protein aggregation may be determined by measuring the aggregation period of β-amyloid in admixture with the drug agent based on the decrease in peptide monomer or appearance of smearing observed with SDS-PAGE.
Specifically, 10 µl of solution is taken from a reagent solution containing β-amyloid protein and a drug agent, an equivalent of a sample buffer for electrophoresis (20 mM Tris-HCl buffer, pH 6.8, 40% glycerin, 2% SDS, 2% β-mercaptoethanol) is added thereto, and the mixture is boiled at 100°C for 5 minutes. Next, 10 µl of the solution is placed on a 15-25% polyacrylamide gradient gel for electrophoresis in a Tris-glycine buffered system. After completion of the electrophoresis, the gel is stained with 0.2% Coomassie brilliant blue solution and the amount of peptide monomer (band thickness) and presence of smearing is observed. […]

Row | Compound | LD₅₀ value [1] | maximum blood concentration [2] | reduction in peptide monomer and appearance of smear (β1-35 peptide aggregation) [3]
1 | CO[C@H]1/C=C/O[C@@]2(C)Oc3c(C)c(O)c4c(O)c(c(/C=N/N5CCN(C)CC5)c(O)c4c3C2=O)NC(=O)/C(C)=C\C=C\[C@H](C)[C@H](O)[C@@H](C)[C@@H](O)[C@@H](C)[C@H](OC(C)=O)[C@@H]1C [rifampicin, Rifampicin] | 1720 mg/kg | about 10 µg/ml | 
2 | COC1C=COC2(C)Oc3c(C)c(O)c4c(O)c(cc(OCC(=O)O)c4c3C2=O)NC(=O)C(C)=CC=CC(C)C(O)C(C)C(O)C(C)C(OC(C)=O)C1C (stereo not shown) [rifamycin B, Rifamycin B] |  |  | no reduction in peptide monomer or smearing was observed up to the 14th day after dissolution
3 | CO[C@H]1/C=C/O[C@@]2(C)Oc3c(C)c(O)c4c(O)c(cc(O)c4c3C2=O)NC(=O)/C(C)=C\C=C\[C@H](C)[C@H](O)[C@@H](C)[C@@H](O)[C@@H](C)[C@H](OC(C)=O)[C@@H]1C [rifamycin SV, Rifamycin SV] |  |  | no reduction in peptide monomer or smearing was observed up to the 14th day after dissolution
